From patent US9228178B2, “Engineering of xylose reductase and overexpression of xylitol dehydrogenase and xylulokinase improves xylose alcoholic fermentation in the thermotolerant yeast Hansenula polymorpha” (Archer Daniels Midland Co., priority 2008, dated 2016)
Substitutions are numbered along the chain they refer to. In names and notes the source's numbering stands.

What was measured:
[1] = molecular target: T1, Hansenula polymorpha xylose reductase (XR) variant XRm, K341R N343D, cofactor binding site SEQ ID NO: 2 (Ogataea polymorpha, UniProt A0A1B7SLF1, K271R/N273D); assay: KM towards NADPH or NADH of engineered xylose reductase (XRm), spectrophotometric XR assay in cell extract; conditions: XRm vs native XR
T1 sequence (A0A1B7SLF1 with tags, fused parts or gaps K271R/N273D): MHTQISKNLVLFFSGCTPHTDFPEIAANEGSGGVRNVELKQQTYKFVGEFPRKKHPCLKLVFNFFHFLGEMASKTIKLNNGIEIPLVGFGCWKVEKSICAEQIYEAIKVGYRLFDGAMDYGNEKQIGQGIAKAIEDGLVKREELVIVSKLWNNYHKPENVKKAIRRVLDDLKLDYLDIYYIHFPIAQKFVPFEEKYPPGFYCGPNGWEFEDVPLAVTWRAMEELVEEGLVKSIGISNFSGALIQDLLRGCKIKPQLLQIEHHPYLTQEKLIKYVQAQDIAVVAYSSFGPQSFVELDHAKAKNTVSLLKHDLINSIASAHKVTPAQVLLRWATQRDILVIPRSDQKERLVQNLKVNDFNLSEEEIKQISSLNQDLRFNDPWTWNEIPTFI
Procedure: The XR activity in cell extracts was determined spectrophotometrically at 37° C. […] The reaction was started with cell extract addition.
Biochemical properties of XR in one of constructed recombinant strains (designated XRm) were studied.

[2] = molecular target: T2, Hansenula polymorpha xylose reductase (XR), native (XRn), cofactor binding site SEQ ID NO: 1 (Ogataea polymorpha, UniProt A0A1B7SLF1); assay: KM towards NADPH or NADH of native xylose reductase (XRn), spectrophotometric XR assay in cell extract; type: biochemical; conditions: dual cofactor specificity
T2 construct: native XYL1 ORF from CBS4732 genomic DNA, HpGAP promoter (pX1N-Z), overexpressed in H. polymorpha Δxyl1; cell extract
T2 sequence (A0A1B7SLF1 with tags, fused parts or gaps): T1 sequence (A0A1B7SLF1 with tags, fused parts or gaps K271R/N273D) with R341K, D343N
Procedure: (§1) The XR activity in cell extracts was determined spectrophotometrically at 37° C. […] The reaction was started with cell extract addition [3].

[3] = substrate: NC(=O)C1=CN([C@@H]2O[C@H](COP(=O)(O)OP(=O)(O)OC[C@H]3O[C@@H](n4cnc5c(N)ncnc54)[C@H](O)[C@@H]3O)[C@@H](O)[C@H]2O)C=CC1; assay: cells, lysate or membranes; conditions: other: XRm, 37° C., pH 7.0, xylose 350 mM, NADH 20-150 μM
Procedure: as §1

[4] = substrate: NC(=O)C1=CN([C@@H]2O[C@H](COP(=O)(O)OP(=O)(O)OC[C@H]3O[C@@H](n4cnc5c(N)ncnc54)[C@H](OP(=O)(O)O)[C@@H]3O)[C@@H](O)[C@H]2O)C=CC1; assay: cells, lysate or membranes; conditions: xylose as substrate, 37° C., pH 7.0, xylose 350 mM, NADPH 20-150 μM

**Q.** With `NC(=O)C1=CN([C@@H]2O[C@H](COP(=O)(O)OP(=O)(O)OC[C@H]3O[C@@H](n4cnc5c(N)ncnc54)[C@H](O)[C@@H]3O)[C@@H](O)[C@H]2O)C=CC1` [NADH] as the molecule, how does the “KM for NADH, compared with native XR (in words)” value [1] read?
**A.** The value was “remained nearly unchanged”.

**Q.** Which results are given for `NC(=O)C1=CN([C@@H]2O[C@H](COP(=O)(O)OP(=O)(O)OC[C@H]3O[C@@H](n4cnc5c(N)ncnc54)[C@H](OP(=O)(O)O)[C@@H]3O)[C@@H](O)[C@H]2O)C=CC1` [NADPH]?
**A.** cofactor preference for NADPH (over NADH) [2]: > 10 fold; KM for NADPH, change against native XR (in words) [1]: significant increase; KM for NADPH, times higher than the KM for NADPH of the native XR ([1]; xylose as substrate): 17 times

B1: Hansenula polymorpha xylose reductase (XR) variant XRm, K341R N343D, cofactor binding site SEQ ID NO: 2 (Ogataea polymorpha; K271R/N273D) (protein)
chain: T1 sequence (A0A1B7SLF1 with tags, fused parts or gaps K271R/N273D)
**Q.** How did the Km [3] turn out when B1 was run?
**A.** Its Km is 112 µM.

**Q.** What about the Km ([4]; other: XRm) of the same molecule?
**A.** The Km was 152 µM.

B2: Hansenula polymorpha xylose reductase (XR), native (XRn), cofactor binding site SEQ ID NO: 1 (Ogataea polymorpha) (protein)
chain: T1 sequence (A0A1B7SLF1 with tags, fused parts or gaps K271R/N273D) with R341K, D343N
**Q.** Which Km ([4]; other: native XR) does the source give for B2 here?
**A.** The Km was 9 µM.
